The values that follow come from patent US6218431A, “Substituted biphenyls” (Bayer Corporation, priority 1997, dated 2001).

As usually defined, the inhibition is the percentage by which the read-out fell short of the control. What is called IC50 is the concentration at which inhibition is half-maximal.

The target of one test is T1, glucagon receptor (Homo sapiens, UniProt P47871).
T1 construct: expressed in transfected cells; host or cells: Chinese Hamster Ovary cells (CHO-HGR), membranes
T1 sequence (P47871 26-477): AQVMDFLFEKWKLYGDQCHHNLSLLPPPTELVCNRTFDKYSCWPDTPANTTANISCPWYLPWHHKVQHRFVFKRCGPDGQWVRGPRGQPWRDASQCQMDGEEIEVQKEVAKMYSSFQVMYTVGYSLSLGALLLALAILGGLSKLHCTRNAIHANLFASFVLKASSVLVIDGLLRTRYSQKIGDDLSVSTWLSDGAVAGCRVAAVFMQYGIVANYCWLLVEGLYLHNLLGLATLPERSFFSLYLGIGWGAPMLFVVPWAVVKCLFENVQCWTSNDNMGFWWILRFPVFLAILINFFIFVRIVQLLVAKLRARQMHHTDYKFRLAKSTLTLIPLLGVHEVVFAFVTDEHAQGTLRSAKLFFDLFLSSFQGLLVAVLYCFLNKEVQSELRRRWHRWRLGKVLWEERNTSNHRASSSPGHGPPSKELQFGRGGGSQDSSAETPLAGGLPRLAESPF
Kind of test: glucagon receptor binding assay (125I-glucagon, CHO-HGR membranes). The following applies: 20 μM; reported where 20 μM did not reduce glucagon binding by 50%. How it is done: The affinity for the glucagon receptor of compounds of the present invention is determined by the glucagon receptor binding assay. Membranes were prepared from Chinese Hamster Ovary cells expressing the glucagon receptor (CHO-HGR) by scraping the cells into hypotonic lysis buffer (10 mM Tris, pH 7.4, 2 mM EDTA, 5 mM MgCl2 and 1 mM PMSF) and subjecting the material to Polytron homogenization. Nuclei were removed by a 15-min 800×g centrifugation step conducted at 4° C. Membranes containing the receptor were collected by centrifugation at 15,000×gfor 15 min at 4° C. The membranes were washed once in lysis buffer and suspended in 0.25 M sucrose, 10 mM Tris, 5 mM EDTA, pH 7.4. The membranes were used in ligand binding studies as reported (Yoo-Warren, H., Willse, A. G., Hancock, N., Hull, J., McCaleb, M., and Livingston, J. Regulation of Rat Glucagon Receptor Expression. Biochem. Biophysical Res. Commun. 1994, 205, 347-353). In brief, 10 ug of membrane protein was incubated in 130 μl of binding buffer that consisted of 20 mM Tris, […], 1 mM EDTA, 1 mg/ml BSA, and 1 mg/ml bacitracin. The membrane suspension was placed in each well of a 96-well filtration plate (glass fiber type C, Millipore). […] Following the addition of test compound, 50 μl of ^125 I-glucagon (9 fmol) (NEN) was added to each well. Control wells contained membranes, 0.5% DMSO (solvent for test compounds), radiolabeled glucagon without and with excess native glucagon (1 μM) to establish nonspecific binding. The plates were incubated for 60 min at room temperature, and then filtered on a Mllipore vacuum apparatus. Following a wash step with ice-cold PBS/0.1% BSA, the filters were punched into test tubes, and the membrane bound radioactivity was determined.
As for `CC(C)c1nc(C(C)C)c(CSc2ccc(O)cc2)c(-c2ccc(F)cc2)c1CO` [Example 55, 2,6-Diisopropyl-3-hydroxymethyl-4-(4-fluorophenyl)-5-[(4-hydroxy-phenyl)thio]methylpyridine], the inhibition at 20 µM turned out to be 15.7%.
`CC(C)c1nc(C(C)C)c(CN2CCOCC2)c(-c2ccc(F)cc2)c1CO` [Example 69, 2,6-Diisopropyl-3-hydroxymethyl-4-(4-fluorophenyl)-5-(morpholinomethyl)pyridine] showed an inhibition at 20 µM of 40.2%.
The same measure, in the same setting: then `CC(C)c1nc(C(C)C)c(CN2CCCC2)c(-c2ccc(F)cc2)c1CO` [Example 71, 2,6-Diisopropyl-3-hydroxymethyl-4-(4-fluorophenyl)-5-(pyrrolindino-methyl)pyridine], with 46.3%; and `CC(C)c1nc(C(C)C)c(CN2CCC(c3ccccc3)CC2)c(-c2ccc(F)cc2)c1CO` [Example 72], with 42.1%; and `COC(=O)c1c(C(C)C)nc(C(C)C)c(CN2CCC(N3CCCCC3)CC2)c1-c1ccc(F)cc1` [Example 73, Methyl-2,6-diisopropyl-4-(4-fluorophenyl)-5-(4piperidinopiperidin-1-yl)methyl-3-pyridinecarboxylate], with 17.5%.
The compound `CC(C)c1nc(C(C)C)c(CN2CCC(N3CCCCC3)CC2)c(-c2ccc(F)cc2)c1CO` [Example 74, 2,6-Diisopropyl-3-hydroxymethyl-4-(4-fluorophenyl)-5-[(4-piperidinopiperidin-1-yl)methyl]pyridine] returned an inhibition at 20 µM of 27.1%.
`CC(C)c1nc(C(C)C)c(CN2CCN(c3ccccc3)CC2)c(-c2ccc(F)cc2)c1CO` [Example 75, 2,6-Diisopropyl-3-hydroxymethyl-4-(4-fluorophenyl)-5-[(4-phenylpiperazin-1-yl)methyl]pyridine] yielded an inhibition at 20 µM of 34.2%.
On the same count and under the same terms, in the case of `CC(C)c1nc(C(C)C)c(Cn2ccnc2)c(-c2ccc(F)cc2)c1CO` [Example 76, 2,6-Diisopropyl-3-hydroxymethyl-4-(4-fluorophenyl)-5-(imidazol-1-yl)-methylpyridine] it was 5.18%.
On the same count and under the same terms, in the case of `CCCCN(CCCC)Cc1c(C(C)C)nc(C(C)C)c(CO)c1-c1ccc(F)cc1` [Example 80, 2,6-Diisopropyl-3-hydroxymethyl-4-(4fluorophenyl)-5-(dibutylamino)-methylpyridine] it was 38.8%.

The same test, now with this note: 125I-glucagon; 60 min at room temperature; read-out: IC50.
In the case of `CC(C)c1nc(C(C)C)c(CSc2ccc3ccccc3c2)c(-c2ccc(F)cc2)c1CO` [Example 52, 2,6Diisopropyl-3hydroxymethyl-4-(4-fluorophenyl)-5-(2-naphthyl-thio)methlpyridine], the IC50 was 20 µM.
On the same count and under the same terms, in the case of `CC(C)c1nc(C(C)C)c(CSc2c(F)c(F)cc(F)c2F)c(-c2ccc(F)cc2)c1CO` [Example 53, 2,6-Diisopropyl-3-hydroxymethyl-4-(4-fluorophenyl)-5-[(2,3,5,6-tetra-fluorophenyl)thio]methylpyridine] it was 4.9 µM.
On the same count and under the same terms, then `COc1cccc(SCc2c(C(C)C)nc(C(C)C)c(CO)c2-c2ccc(F)cc2)c1` [Example 54, 2,6-Diisopropyl-3-hydroxymethyl-4-(4-fluorophenyl)-5-[(3-methyoxy-phenyl)thio]methylpyridine], with 1.8 µM.
Regarding `COc1ccc(SCc2c(C(C)C)nc(C(C)C)c(CO)c2-c2ccc(F)cc2)cc1` [Example 56, 2,6-Diisopropyl-3-hydroxymethyl-4-(4-fluorophenyl)-5-[(4-methoxy-phenyl)thio]methylpyridine], the IC50 came out at 1.9 µM.
The same measure, in the same setting: in the case of `Cc1cccc(SCc2c(C(C)C)nc(C(C)C)c(CO)c2-c2ccc(F)cc2)c1` [Example 57, 2,6-Diisopropyl-3-hydroxymethyl-4-(4-fluorophenyl)-5-[(3-methyl-phenyl)thio]methylpyridine] it was 1.1 µM; in that of `Cc1ccccc1SCc1c(C(C)C)nc(C(C)C)c(CO)c1-c1ccc(F)cc1` [Example 58, 2,6Diisopropyl-3-hydroxymethyl-4-(4-fluorophenyl)-5-[(2-methyl-phenyl)thio]methylpyridine], 1.5 µM; in that of `CC(C)c1nc(C(C)C)c(CSc2cccc(F)c2)c(-c2ccc(F)cc2)c1CO` [Example 59, 2,6-Diisopropyl-3-hydroxymethyl-4-(4-fluorophenyl)-5-[(3-fluoro-phenyl)thio]methylpyridine], 1 µM.
On the same count and under the same terms, in the case of `COc1ccccc1SCc1c(C(C)C)nc(C(C)C)c(CO)c1-c1ccc(F)cc1` [Example 60, 2,6-Diisopropyl-3-hydroxymethyl-4-(4-fluorophenyl)-5-[(2-methoxy-phenyl)thio]methylpyridine] it was 1.6 µM; in that of `Cc1cc(C)cc(SCc2c(C(C)C)nc(C(C)C)c(CO)c2-c2ccc(F)cc2)c1` [Example 61, 2,6-Diisopropyl-3-hydroxymethyl-4-(4-fluorophenyl)-5-[(3,5dimethylphenyl)thio]methylpyridine], 3.4 µM.
Regarding `CCc1ccc(SCc2c(C(C)C)nc(C(C)C)c(CO)c2-c2ccc(F)cc2)cc1` [Example 62, 2,6-Diisopropyl-3-hydroxymethyl-4-(4-fluorophenyl)-5-[(4-ethyl-phenyl)thio]methylpyridine], the IC50 is 1.1 µM.
Still for that read-out and setting: in the case of `CC(C)c1ccc(SCc2c(C(C)C)nc(C(C)C)c(CO)c2-c2ccc(F)cc2)cc1` [Example 63, 2,6-Diisopropyl-3-hydroxymethyl-4-(4-fluorophenyl)-5-[(4-isopropyl-phenyl)thio]methylpyridine] it was 1.7 µM.
On the same count and under the same terms, then `CC(C)c1nc(C(C)C)c(CSCc2ccccc2)c(-c2ccc(F)cc2)c1CO` [Example 64], with 1.1 µM; and `CC(C)c1nc(C(C)C)c(CSCCc2ccccc2)c(-c2ccc(F)cc2)c1CO` [Example 65, 2,6-Diisopropyl-3-hydroxymethyl-4-(4-fluorophenyl)-5-[(phenethyl)-thiomethyl]pyridine], with 0.75 µM.
`CCCSCc1c(C(C)C)nc(C(C)C)c(CO)c1-c1ccc(F)cc1` [Example 66, 2,6-Diisopropyl-3-hydroxymethyl4-(4-fluorophenyl)-5-(propylthio)-methylpyridine]: the IC50 was 1 µM.
On the same count and under the same terms, then `CSCc1c(C(C)C)nc(C(C)C)c(CO)c1-c1ccc(F)cc1` [Example 67, 2,6-Diisopropyl-3-hydroxymethyl-4-(4-fluorophenyl)-5-(methylthio)-methylpyridine], with 1.1 µM; and `CC(C)c1nc(C(C)C)c(CSc2ccc([N+](=O)[O-])cc2)c(-c2ccc(F)cc2)c1CO` [Example 68, 2,6-Diisopropyl-3-hydroxymethyl-4-(4-fluorophenyl)-5-[(4-nitrophenyl)-thio]methylpyridine], with 13 µM.
With `CC(C)c1nc(C(C)C)c(CN2CCCCC2)c(-c2ccc(F)cc2)c1CO` [Example 70, 2,6-Diisopropyl-3-hydroxymethyl-4-(4-fluorophenyl)-5-(piperidinomethyl)pyridine], the IC50 stood at 12 µM.
The same measure, in the same setting: then `CC(C)c1nc(C(C)C)c(CNC2CC2)c(-c2ccc(F)cc2)c1CO` [Example 77, 2,6-Diisopropyl-3-hydroxymethyl-4-(4-fluorophenyl)-5-(cyclopropyl-amino)methylpyridine], with 6 µM; and `CC(C)c1nc(C(C)C)c(CNC2CCCCC2)c(-c2ccc(F)cc2)c1CO` [Example 78, 2,6-Diisopropyl-3-hydroxymethyl-4-(4-fluorophenyl)-5-(cyclohexylamino)methylpyridine], with 7.5 µM.
`CC(C)c1nc(C(C)C)c(CN(C)C)c(-c2ccc(F)cc2)c1CO` [Example 79, 2,6-Diisopropyl-3-hydroxymethyl-4-(4-fluorophenyl)-5-(dimethylamino)-methylpyridine]: the IC50 was 10 µM.
In the case of `Cc1c(C(C)C)nc(C(C)C)c(CO)c1-c1ccc(F)cc1` [Example 81], the IC50 was 7.5 µM.
As for `CC(C)c1nc(C(C)C)c(CC=Cc2ccccc2)c(-c2ccc(F)cc2)c1CO` [Example 82, 2,6-Diisopropyl-3-hydroxymethyl-4-(4-fluorophenyl)-5-(3-phenyl-2-propenyl)pyridine], the IC50 was determined as 1.9 µM.
Still for that read-out and setting: in the case of `CC(C)c1nc(C(C)C)c(CCCc2ccccc2)c(-c2ccc(F)cc2)c1CO` [Example 83] it was 0.65 µM; in that of `Cc1ccccc1CCCc1c(C(C)C)nc(C(C)C)c(CO)c1-c1ccc(F)cc1` [Example 84, 2,6-Diisopropyl-3-hydroxymethyl-4-(4-fluorophenyl)-5-[3-(2-methylphenyl)propyl]pyridine], 1.9 µM.
On the same count and under the same terms, in the case of `Cc1cccc(CCCc2c(C(C)C)nc(C(C)C)c(CO)c2-c2ccc(F)cc2)c1` [Example 85, 2,6-Diisopropyl-3-hydroxymethyl-4-(4-fluorophenyl)-5-[3-(3-methyl-5-phenyl)propyl]pyridine] it was 1.5 µM; in that of `Cc1ccc(CCCc2c(C(C)C)nc(C(C)C)c(CO)c2-c2ccc(F)cc2)cc1` [Example 86, 2,6-Diisopropyl-3-hydroxymethyl-4-(4-fluorophenyl)-5-[3-(4methyl-phenyl)propyl]pyridine], 1.1 µM.
